Reference: PubChem BioAssay (NCI)
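Abbreviation: GI50, concentration required for 50% inhibition of growth. The concentration for full growth arrest is given as TGI.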

Experiments:
Experiment in all cases: NCI anticancer screen, dose series, 384-well format
A549 NSCLC = system: A549 NSCLC
ACHN renal = system: ACHN renal
BT-549 breast = system: BT-549 breast
CAKI-1 renal = system: CAKI-1 renal
CCRF-CEM leukemia = system: CCRF-CEM leukemia
DU-145 prostate = system: DU-145 prostate
HCT-116 colon = system: HCT-116 colon
HCT-15 colon = system: HCT-15 colon
HL-60(TB) leukemia = system: HL-60(TB) leukemia
HOP-62 NSCLC = system: HOP-62 NSCLC
HOP-92 NSCLC = system: HOP-92 NSCLC
K-562 leukemia = system: K-562 leukemia
LOX IMVI melanoma = system: LOX IMVI melanoma
MALME-3M melanoma = system: MALME-3M melanoma
MCF7 breast = system: MCF7 breast
MDA-MB-468 breast = system: MDA-MB-468 breast
MOLT-4 leukemia = system: MOLT-4 leukemia
NCI-H226 lung = system: NCI-H226 lung
NCI-H23 lung = system: NCI-H23 lung
NCI-H322M lung = system: NCI-H322M lung
NCI-H460 NSCLC = system: NCI-H460 NSCLC
NCI-H522 lung = system: NCI-H522 lung
NCI/ADR-RES ovarian = system: NCI/ADR-RES ovarian
OVCAR-3 ovarian = system: OVCAR-3 ovarian
OVCAR-4 ovarian = system: OVCAR-4 ovarian
OVCAR-5 ovarian = system: OVCAR-5 ovarian
OVCAR-8 ovarian = system: OVCAR-8 ovarian
PC-3 prostate = system: PC-3 prostate
RPMI-8226 leukemia = system: RPMI-8226 leukemia
RXF 393 renal = system: RXF 393 renal
SF-295 CNS = system: SF-295 CNS
SK-MEL-28 melanoma = system: SK-MEL-28 melanoma
SK-MEL-5 melanoma = system: SK-MEL-5 melanoma
SN12C renal = system: SN12C renal
SNB-19 CNS = system: SNB-19 CNS
SR leukemia = system: SR leukemia
SW-620 colon = system: SW-620 colon
T-47D breast = system: T-47D breast
TK-10 renal = system: TK-10 renal
UACC-257 melanoma = system: UACC-257 melanoma
UO-31 renal = system: UO-31 renal

Which results are given for `Cc1nc(-c2nc(-c3ccc(OC(F)(F)F)cc3)no2)nn1Cc1cccc(N2CCC(S(C)(=O)=O)CC2)c1`?
GI50 (A549 NSCLC): 2.61 µM; TGI (A549 NSCLC): 33.9 µM; GI50 (ACHN renal): 10.4 µM; TGI (ACHN renal): 34.6 µM; GI50 (BT-549 breast): 2.1 µM; TGI (BT-549 breast): 26.2 µM; GI50 (CAKI-1 renal): 4.66 µM; TGI (CAKI-1 renal): 71.1 µM; GI50 (CCRF-CEM leukemia): < 0.01 µM; TGI (CCRF-CEM leukemia): 3.59 µM; GI50 (DU-145 prostate): 29.4 µM; TGI (DU-145 prostate): > 100 µM; GI50 (HCT-116 colon): < 0.01 µM; TGI (HCT-116 colon): 2.82 µM; GI50 (HCT-15 colon): 6.19 µM; TGI (HCT-15 colon): > 100 µM; GI50 (HL-60(TB) leukemia): 0.156 µM; TGI (HL-60(TB) leukemia): 0.29 µM; GI50 (HOP-62 NSCLC): < 0.01 µM; TGI (HOP-62 NSCLC): 20.6 µM; GI50 (HOP-92 NSCLC): 0.567 µM; TGI (HOP-92 NSCLC): 46.2 µM; GI50 (K-562 leukemia): < 0.01 µM; TGI (K-562 leukemia): > 100 µM; GI50 (LOX IMVI melanoma): 0.0479 µM; TGI (LOX IMVI melanoma): > 100 µM; GI50 (MALME-3M melanoma): 23.6 µM; TGI (MALME-3M melanoma): 56.6 µM; GI50 (MCF7 breast): 0.221 µM; TGI (MCF7 breast): 50.8 µM; GI50 (MDA-MB-468 breast): < 0.01 µM; TGI (MDA-MB-468 breast): < 0.01 µM; GI50 (MOLT-4 leukemia): 0.0271 µM; TGI (MOLT-4 leukemia): 0.208 µM; GI50 (NCI-H226 lung): 0.664 µM; TGI (NCI-H226 lung): 39.5 µM; GI50 (NCI-H23 lung): < 0.01 µM; TGI (NCI-H23 lung): < 0.01 µM; GI50 (NCI-H322M lung): 0.0149 µM; TGI (NCI-H322M lung): 16.4 µM; GI50 (NCI-H460 NSCLC): < 0.01 µM; TGI (NCI-H460 NSCLC): 0.0183 µM; GI50 (NCI-H522 lung): 1.08 µM; TGI (NCI-H522 lung): 17.6 µM; GI50 (NCI/ADR-RES ovarian): < 0.01 µM; TGI (NCI/ADR-RES ovarian): 0.0515 µM; GI50 (OVCAR-3 ovarian): 5.09 µM; TGI (OVCAR-3 ovarian): > 100 µM; GI50 (OVCAR-4 ovarian): 0.292 µM; TGI (OVCAR-4 ovarian): 24.8 µM; GI50 (OVCAR-5 ovarian): 86 µM; TGI (OVCAR-5 ovarian): > 100 µM; GI50 (OVCAR-8 ovarian): < 0.01 µM; TGI (OVCAR-8 ovarian): 19.6 µM; GI50 (PC-3 prostate): 17.3 µM; TGI (PC-3 prostate): > 100 µM; GI50 (RPMI-8226 leukemia): < 0.01 µM; TGI (RPMI-8226 leukemia): 1.03 µM; GI50 (RXF 393 renal): < 0.01 µM; TGI (RXF 393 renal): < 0.01 µM; GI50 (SF-295 CNS): 0.0932 µM; TGI (SF-295 CNS): 37 µM; GI50 (SK-MEL-28 melanoma): 28 µM; TGI (SK-MEL-28 melanoma): 80.9 µM; GI50 (SK-MEL-5 melanoma): < 0.01 µM; TGI (SK-MEL-5 melanoma): 11.8 µM; GI50 (SN12C renal): 20.4 µM; TGI (SN12C renal): > 100 µM; GI50 (SNB-19 CNS): 47.2 µM; TGI (SNB-19 CNS): > 100 µM; GI50 (SR leukemia): < 0.01 µM; TGI (SR leukemia): < 0.01 µM; GI50 (SW-620 colon): 11.5 µM; TGI (SW-620 colon): > 100 µM; GI50 (T-47D breast): < 0.01 µM; TGI (T-47D breast): 23.4 µM; GI50 (TK-10 renal): 8.15 µM; TGI (TK-10 renal): 78.8 µM; GI50 (UACC-257 melanoma): 0.0565 µM; TGI (UACC-257 melanoma): 0.827 µM; GI50 (UO-31 renal): 7.92 µM; TGI (UO-31 renal): 36.6 µM
